Measured values reported in patent US12448388B2, “PRMT5 inhibitors and uses thereof” (Gilead Sciences, Inc., priority 2023, dated 2025).
Where two headings read alike, the source gives them in different places.

Test system: HCT116 MTAP-deleted cell lines
Test: Cell viability assay (CellTiter-Glo, 7 days), HCT116 MTAP-deleted
Assay type: cell-based
Conditions: Homo sapiens, HCT-116, HCT116 MTAP-deleted, class symbols, read-out: CC50
Summary of the method: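 PRMT5 inhibitors were serially diluted in DMSO and acoustically spotted as dose-response series into plates before cell seeding. Cells were grown with compound for 7 days at 37 °C, 5% CO2, 90% humidity, then viability was read by CellTiter-Glo luminescence and reported as CC50.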

## Nc1nc2cc(F)c(C(=O)N3CCCC[C@@H]3c3ccc(S(F)(F)(F)(F)F)cc3)cc2n2cncc12 [Ff-404, (R)-(4-amino-7-fluoroimidazo[1,5-a]quinoxalin-8-yl)(2-(4-(pentafluoro-λ^6-sulfaneyl)phenyl)piperidin-1-yl)methanone]
Cell viability assay
  CC50: < 100 nM

## Nc1nc2cc(F)c(C(=O)N3C[C@H](F)CC[C@H]3c3ccc(C(F)(F)F)cn3)cc2n2cncc12 (single isomer, unassigned) [Ff-245]
Cell viability
  CC50: 100 to 1000 nM

## Cc1c(N(Cc2ccc(C(F)(F)F)cc2F)C(=O)c2cc3c(cc2F)nc(N)c2cncn23)cnn1C [Ff-414, 4-amino-N-(1,5-dimethylpyrazol-4-yl)-7-fluoro-N-[[2-fluoro-4-(trifluoromethyl)phenyl]methyl]imidazo[1,5-a]quinoxaline-8-carboxamide]
Cell viability assay
  CC50: < 100 nM

## Nc1nc2ccc(C(=O)N3CC[C@H]4C[C@@H]3c3ccc(C(F)(F)F)cc34)cc2n2cncc12 (racemic) [Ff-74, (Rac)-(4-aminoimidazo[1,5-a]quinoxalin-8-yl)(7-(trifluoromethyl)-1,3,4,5-tetrahydro-2H-1,5-methanobenzo[c]azepin-2-yl)methanone]
Cell viability
  CC50: 100 to 1000 nM

## C[C@@H]1CN(C(=O)c2cc3c(cc2F)nc(N)c2cncn23)[C@H]2c3ccc(OC(F)(F)F)c(F)c3C[C@H]2O1 (single isomer, unassigned) [Ff-191]
Cell viability
  CC50: < 100 nM

## Nc1nc2cc(F)c(C(=O)N3CCC[C@@H]4Oc5cc(F)c(F)cc5[C@@H]43)cc2n2cncc12 (racemic) [Ff-101, Rac-(4-amino-7-fluoroimidazo[1,5-a]quinoxalin-8-yl)((4aS,9bS)-7,8-difluoro-3,4,4a,9b-tetrahydrobenzofuro[3,2-b]pyridin-1(2H)-yl)methanone]
Cell viability
  CC50: 100 to 1000 nM

## Cc1ncc2c(N)nc3cnc(C(=O)N4C[C@H](C)O[C@@H]5Cc6cc(Cl)ccc6[C@@H]54)cc3n12 (single isomer, unassigned) [Ff-464]
Cell viability assay
  CC50: 100 to 1000 nM

## CN(C(=O)c1cc2c(cc1F)nc(N)c1cncn12)[C@@H]1COc2cc(C3CC34CCC4)ccc21 (stereo partly drawn) [Ff-476, 4-amino-7-fluoro-N-methyl-N-((3S)-6-(spiro[2.3]hexan-1-yl)-2,3-dihydrobenzofuran-3-yl)imidazo[1,5-a]quinoxaline-8-carboxamide]
Cell viability assay
  CC50: 100 to 1000 nM

## C[C@@H]1CC[C@@H]2Oc3cc(C(F)(F)F)ccc3[C@@H]2N1C(=O)c1cc2c(cc1F)nc(N)c1cncn12 (racemic) [Ff-100, Rac-(4-amino-7-fluoroimidazo[1,5-a]quinoxalin-8-yl)((2R,4aS,9bS)-2-methyl-7-(trifluoromethyl)-3,4,4a,9b-tetrahydrobenzofuro[3,2-b]pyridin-1(2H)-yl)methanone]
Cell viability
  CC50: < 100 nM

## C[C@@H]1C[C@@H]2Oc3cc(C(F)(F)F)ccc3[C@@H]2N(C(=O)c2cc3c(cc2F)nc(N)c2cncn23)C1 [Ff-251, (4-amino-7-fluoroimidazo[1,5-a]quinoxalin-8-yl)((3R,4aS,9bS)-3-methyl-7-(trifluoromethyl)-3,4,4a,9b-tetrahydrobenzofuro[3,2-b]pyridin-1(2H)-yl)methanone]
Cell viability
  CC50: < 100 nM

## Cc1ncn2c1c(N)nc1cnc(C(=O)N3[C@H](C)CC[C@@H]4Oc5cc(C(F)(F)F)ccc5[C@@H]43)cc12 (single isomer, unassigned) [Ff-611]
Cell viability assay
  CC50: < 100 nM

## CCN(C(=O)c1ccc2nc(N)c3cncn3c2c1)[C@@H](c1ccc(C(F)(F)F)cc1F)C(F)F [Fb-15, (S)-4-amino-N-(2,2-difluoro-1-(2-fluoro-4-(trifluoromethyl)phenyl)ethyl)-N-ethylimidazo[1,5-a]quinoxaline-8-carboxamide]
Cell viability
  CC50: < 100 nM

## CN(Cc1ccc([C@@H]2C[C@H]2c2ccn(C(F)F)n2)cn1)C(=O)c1cc2c(cc1F)nc(N)c1cncn12 [Ff-428, 4-amino-N-[[5-[(1R,2R)-2-[1-(difluoromethyl)pyrazol-3-yl]cyclopropyl]-2-pyridyl]methyl]-7-fluoro-N-methyl-imidazo[1,5-a]quinoxaline-8-carboxamide]
Cell viability assay
  CC50: 100 to 1000 nM

## C[C@@H]1CN(C(=O)c2cc3c(cc2F)nc(N)c2cncn23)[C@H]2c3cc(F)c(C(F)F)cc3C[C@H]2O1 (single isomer, unassigned) [Ff-172]
Cell viability
  CC50: < 100 nM

## Nc1nc2ccc(C(=O)N3CCO[C@@H]4Cc5cc(Br)ccc5[C@@H]43)cc2n2cncc12 (racemic) [Ff-37, Racemic (4-aminoimidazo[1,5-a]quinoxalin-8-yl)((4aS,9aR)-7-bromo-2,3,9,9a-tetrahydroindeno[2,1-b][1,4]oxazin-4(4aH)-yl)methanone]
Cell viability
  CC50: 100 to 1000 nM

## CN(C(=O)c1cc2c(cc1F)nc(N)c1cncn12)[C@@H]1COc2cc(OC(F)F)c(F)cc21 [Ff-584]
Cell viability assay
  CC50: < 100 nM

## CN(C(=O)c1cc2c(cc1F)nc(N)c1cncn12)C1COCc2nc(Br)ccc21 (stereo not drawn) [Ff-275, 4-amino-N-(2-bromo-5,8-dihydro-6H-pyrano[3,4-b]pyridin-5-yl)-7-fluoro-N-methylimidazo[1,5-a]quinoxaline-8-carboxamide]
Cell viability
  CC50: < 100 nM

## CN(Cc1ccc2c(c1)OC(F)(F)O2)C(=O)c1ccc2nc(N)c3cncn3c2c1 [Ff-123, 4-amino-N-((2,2-difluorobenzo[d][1,3]dioxol-5-yl)methyl)-N-methylimidazo[1,5-a]quinoxaline-8-carboxamide]
Cell viability
  CC50: 100 to 1000 nM

## C[C@H](C(=O)N(C)C)N(Cc1ccc(C(F)(F)F)cc1F)C(=O)c1cc2c(cc1F)nc(N)c1cncn12 [Ff-69, 4-amino-N-[(1R)-2-(dimethylamino)-1-methyl-2-oxo-ethyl]-7-fluoro-N-[[2-fluoro-4-(trifluoromethyl)phenyl]methyl]imidazo[1,5-a]quinoxaline-8-carboxamide]
Cell viability
  CC50: 100 to 1000 nM

## COc1ccc2c(n1)CCC2N(C)C(=O)c1cc2c(cc1F)nc(N)c1cncn12 (stereo not drawn) [Ff-271, 4-amino-7-fluoro-N-(2-methoxy-6,7-dihydro-5H-cyclopenta[b]pyridin-5-yl)-N-methylimidazo[1,5-a]quinoxaline-8-carboxamide]
Cell viability
  CC50: 100 to 1000 nM

## Nc1nc2cc(F)c(C(=O)N3CC(F)(F)CC[C@@H]3c3ccc(C(F)(F)F)cn3)cc2n2cncc12 (single isomer, unassigned) [Ff-242]
Cell viability
  CC50: < 100 nM

## CN(C(=O)c1cc2c(cc1F)nc(N)c1cncn12)[C@@H]1COc2cc(C3=CCOC3(C)C)ccc21 [Ff-485, (S)-4-amino-N-(6-(2,2-dimethyl-2,5-dihydrofuran-3-yl)-2,3-dihydrobenzofuran-3-yl)-7-fluoro-N-methylimidazo[1,5-a]quinoxaline-8-carboxamide]
Cell viability assay
  CC50: < 100 nM

## CC1Oc2cc(C(F)(F)F)ccc2C1N(C)C(=O)c1cc2c(cc1F)nc(N)c1cncn12 (stereo not drawn) [Ff-114, 4-amino-7-fluoro-N-methyl-N-(2-methyl-6-(trifluoromethyl)-2,3-dihydrobenzofuran-3-yl)imidazo[1,5-a]quinoxaline-8-carboxamide]
Cell viability
  CC50: < 100 nM

## CN(C(=O)c1cc2c(cc1F)nc(N)c1cncn12)C1CCc2nc(Br)ccc21 (stereo not drawn) [Ff-209, 4-amino-N-(2-bromo-6,7-dihydro-5H-cyclopenta[b]pyridin-5-yl)-7-fluoro-N-methylimidazo[1,5-a]quinoxaline-8-carboxamide]
Cell viability
  CC50: 100 to 1000 nM

## CN(C(=O)c1ccc2nc(N)c3cncn3c2c1)[C@@H]1COCc2nc(C(F)(F)F)ccc21 [Ff-302, (S)-4-amino-N-methyl-N-(2-(trifluoromethyl)-5,8-dihydro-6H-pyrano[3,4-b]pyridin-5-yl)imidazo[1,5-a]quinoxaline-8-carboxamide]
Cell viability
  CC50: < 100 nM

## C[C@H]1CN(C(=O)c2ccc3nc(N)c4cncn4c3c2)[C@H]2c3ccc(OC(F)(F)F)cc3C[C@H]2O1 (single isomer, unassigned) [Ff-188]
Cell viability
  CC50: < 100 nM

## CN(C(=O)c1ccc2nc(N)c3cncn3c2c1)[C@@H]1COc2cc(OC(F)(F)F)ccc21 [Ff-563, (S)-4-amino-N-methyl-N-(6-(trifluoromethoxy)-2,3-dihydrobenzofuran-3-yl)imidazo[1,5-a]quinoxaline-8-carboxamide]
Cell viability assay
  CC50: < 100 nM

## C[C@H](c1ccc(C(F)(F)F)cn1)N(C)C(=O)c1cc2c(cc1F)nc(N)c1cncn12 [Ff-532, (R)-4-amino-7-fluoro-N-methyl-N-(1-(5-(trifluoromethyl)pyridin-2-yl)ethyl)imidazo[1,5-a]quinoxaline-8-carboxamide]
Cell viability assay
  CC50: < 100 nM

## Nc1nc2cc(F)c(C(=O)N3CC[C@H]4C[C@@H]3c3ccc(C(F)(F)F)nc34)cc2n2cncc12 (racemic) [Ff-90, Rac-(4-amino-7-fluoroimidazo[1,5-a]quinoxalin-8-yl)((5R,9S)-2-(trifluoromethyl)-5,7,8,9-tetrahydro-6H-5,9-methanopyrido[3,2-c]azepin-6-yl)methanone]
Cell viability
  CC50: 100 to 1000 nM

## Nc1nc2cnc(C(=O)N3CCC[C@@H]4Oc5c(ccc(OC(F)(F)F)c5F)[C@@H]43)cc2n2cncc12 [Ff-336, (4-aminoimidazo[1,5-a]pyrido[3,4-e]pyrazin-8-yl)((4aS,9bS)-6-fluoro-7-(trifluoromethoxy)-3,4,4a,9b-tetrahydrobenzofuro[3,2-b]pyridin-1(2H)-yl)methanone]
Cell viability
  CC50: < 100 nM

## C[C@H](c1ccc(C(F)(F)F)cn1)N(C(=O)c1cc2c(cc1F)nc(N)c1cncn12)C1CC1 [Ff-153, (R)-4-amino-N-cyclopropyl-7-fluoro-N-(1-(5-(trifluoromethyl)pyridin-2-yl)ethyl)imidazo[1,5-a]quinoxaline-8-carboxamide]
Cell viability
  CC50: < 100 nM

## Cc1ncc2c(N)nc3cc(F)c(C(=O)N4CCOC[C@@H]4c4ccc(C(F)(F)F)cc4)cc3n12 [Ff-92, (S)-(4-amino-7-fluoro-1-methylimidazo[1,5-a]quinoxalin-8-yl)(3-(4-(trifluoromethyl)phenyl)morpholino)methanone]
Cell viability
  CC50: < 100 nM

## C[C@H]1CN(C(=O)c2cc3c(cc2F)nc(N)c2cncn23)[C@H]2c3ccc(Br)cc3C[C@H]2O1 [Ff-93, (4-amino-7-fluoroimidazo[1,5-a]quinoxalin-8-yl)((2S,4aS,9aR)-7-bromo-2-methyl-2,3,9,9a-tetrahydroindeno[2,1-b][1,4]oxazin-4(4aH)-yl)methanone]
Cell viability
  CC50: < 100 nM
